# Literature values in patent US6897306B2, “3-heterocyclylpropanohydroxamic acids” (Pfizer Products, Inc., priority 1999, dated 2005).
# Where a SMILES comes first, the peptide text is derived from it. [ ]: non-standard residue; d: D form. The star is where a group is joined. Sta = CC(C)C[C@H](N)[C@@H](O)CC(=O)O; Isovaleryl = CC(C)CC(=O)*
# B1: α2-Macroglobuline: protein reported to at least partially inhibit PCP activity (protein, UniProt P01023 24-1474, looked up)
# Alpha-2-macroglobulin: SVSGKPQYMVLVPSLLHTETTEKGCVLLSYLNETVTVSASLESVRGNRSLFTDLEAENDVLHCVAFAVPKSSSNEEVMFLTVQVKGPTQEFKKRTTVMVKNEDSLVFVQTDKSIYKPGQTVKFRVVSMDENFHPLNELIPLVYIQDPKGNRIAQWQSFQLEGGLKQFSFPLSSEPFQGSYKVVVQKKSGGRTEHPFTVEEFVLPKFEVQVTVPKIITILEEEMNVSVCGLYTYGKPVPGHVTVSICRKYSDASDCHGEDSQAFCEKFSGQLNSHGCFYQQVKTKVFQLKRKEYEMKLHTEAQIQEEGTVVELTGRQSSEITRTITKLSFVKVDSHFRQGIPFFGQVRLVDGKGVPIPNKVIFIRGNEANYYSNATTDEHGLVQFSINTTNVMGTSLTVRVNYKDRSPCYGYQWVSEEHEEAHHTAYLVFSPSKSFVHLEPMSHELPCGHTQTVQAHYILNGGTLLGLKKLSFYYLIMAKGGIVRTGTHGLLVKQEDMKGHFSISIPVKSDIAPVARLLIYAVLPTGDVIGDSAKYDVENCLANKVDLSFSPSQSLPASHAHLRVTAAPQSVCALRAVDQSVLLMKPDAELSASSVYNLLPEKDLTGFPGPLNDQDNEDCINRHNVYINGITYTPVSSTNEKDMYSFLEDMGLKAFTNSKIRKPKMCPQLQQYEMHGPEGLRVGFYESDVMGRGHARLVHVEEPHTETVRKYFPETWIWDLVVVNSAGVAEVGVTVPDTITEWKAGAFCLSEDAGLGISSTASLRAFQPFFVELTMPYSVIRGEAFTLKATVLNYLPKCIRVSVQLEASPAFLAVPVEKEQAPHCICANGRQTVSWAVTPKSLGNVNFTVSAEALESQELCGTEVPSVPEHGRKDTVIKPLLVEPEGLEKETTFNSLLCPSGGEVSEELSLKLPPNVVEESARASVSVLGDILGSAMQNTQNLLQMPYGCGEQNMVLFAPNIYVLDYLNETQQLTPEIKSKAIGYLNTGYQRQLNYKHYDGSYSTFGERYGRNQGNTWLTAFVLKTFAQARAYIFIDEAHITQALIWLSQRQKDNGCFRSSGSLLNNAIKGGVEDEVTLSAYITIALLEIPLTVTHPVVRNALFCLESAWKTAQEGDHGSHVYTKALLAYAFALAGNQDKRKEVLKSLNEEAVKKDNSVHWERPQKPKAPVGHFYEPQAPSAEVEMTSYVLLAYLTAQPAPTSEDLTSATNIVKWITKQQNAQGGFSSTQDTVVALHALSKYGAATFTRTGKAAQVTIQSSGTFSSKFQVDNNNRLLLQQVSLPELPGEYSMKVTGEGCVYLQTSLKYNILPEKEEFPFALGVQTLPQTCDEPKAHTSFQISLSVSYTGSRSASNMAIVDVKMVSGFIPLKPTVKMLERSNHVSRTEVSSNHVLIYLDKVSNQTLSLFFTVLQDVPVRDLKPAIVKVYDYYETDEFAIAEYNAPCSKDLGNA
# B2: ovostatin: protein reported to at least partially inhibit PCP activity (protein, UniProt P20740 37-1473, looked up)
# Ovostatin: KEPEPQYVLMVPAVLQSDSPSQVCLQFFNLNQTISVRVVLEYDTINTTIFEKNTTTSNGLQCLNFMIPPVTSVSLAFISFTAKGTTFDLKERRSVMIWNMESFVFVQTDKPIYKPGQSVMFRVVALDFNFKPVQEMYPLIAVQDPQNNRIFQWQNVTSEINIVQIEFPLTEEPILGNYKIIVTKKSGERTSHSFLVEEYVLPKFDVTVTAPGSLTVMDSELTVKICAVYTYGQPVEGKVQLSVCRDFDSYGRCKKSPVCQSFTKDLDTDGCLSHILSSKVFELNRIGYKRNLDVKAIVTEKEQVCNLTATQSISITQVMSSLQFENVDHHYRRGIPYFGQIKLVDKDNSPISNKVIQLFVNNKNTHNFTTDINGIAPFSIDTSKIFDPELSLKALYKTSDQCHSEGWIEPSYPDASLSVQRLYSWTSSFVRIEPLWKDMSCGQKRMITVYYILNTEGYEHINIVNFYYVGMAKGKIVLTGEIKVNIQADQNGTFMIPLVVNEKMAPALRLLVYMLHPAKELVADSVRFSIEKCFKNKVQLQFSEKQMLTTSNVSLVIEAAANSFCAVRAVDKSMLLLKSETELSAETIYNLHPIQDLQGYIFNGLNLEDDPQDPCVSSDDIFHKGLYYRPLTSGLGPDVYQFLRDMGMKFFTNSKIRQPTVCTRETVRPPSYFLNAGFTASTHHVKLSAEVAREERGKRHILETIREFFPETWIWDIILINSTGKASVSYTIPDTITEWKASAFCVEELAGFGMSVPATLTAFQPFFVDLTLPYSIIHGEDFLVRANVFNYLNHCIKINVLLLESLDYQAKLISPEDDGCVCAKIRKSYVWNIFPKGTGDVLFSITAETNDDEACEEEALRNIRIDYRDTQIRALLVEPEGIRREETQNFLICMKDDVISQDVAIDLPTNVVEGSPRPSFSVVGDIMGTAIQNVHQLLQMPFGNGEQNMVLFAPNIYVLDYLDKTRQLSEDVKSKTIGYLVSGYQKQLSYKHPDGSYSTFGIRDKEGNTWLTAFVYKSFAEASRFIYIDDNVQAQTLIWLATKQKTDGCFQSTGILVNNAMKGGVENELSLSAYITIALLEAGHSMSHTVIRNAFYCLETASEKNITDIYTQALVAYAFCLAGKAEICESFLRELQKSAKEVDGSKYWEQNQRSAPEKSHLLDHVQSTDVEITSYVLLALLYKPNRSQEDLTKASAIVQWIIRQQNSYGGFASMQDTVVALQALAAYGAATYNSVTQNVIKINSKNTFEKVFTVNNENRLLLQQTPLPQVPGKYSLTVNGTGCVLIQTALRYNIHLPEGAFGFSLSVQTSNASCPRDQPGKFDIVLISSYTGKRSSSNMVIIDVKMLSGFVPVKSSLDQLIDDHTVMQVEYKKNHVLLYLGNILQKRRKEVTFSVEQDFVVTHPKPAPVQIYDYYETEEYAVAEYMSLCRGVVEEMG
# Tested on: PCP
# Details: buffer concentration 0.2-0.5M; cited from earlier work
row,Molecule,PCP inhibition (in words)
1,Tris-HCl [Tris-HCl buffer],markedly inhibited activity

# Same assay, conditions: literature reports; cited from earlier work
row,Molecule,PCP inhibition (in words)
1,concanavalin A,inhibitory at low concentrations
2,CC(C)C[C@H](NC(=O)[C@@H](NC(=O)N[C@@H](Cc1ccccc1)C(=O)O)[C@@H]1CCN=C(N)N1)C(=O)N[C@H](C=O)Cc1ccccc1 [chymostatin],relatively strong inhibitors
3,CC(C)CC(=O)N[C@H](C(=O)N[C@H](C(=O)N[C@@H](CC(C)C)[C@@H](O)CC(=O)N[C@@H](C)C(=O)N[C@@H](CC(C)C)[C@@H](O)CC(=O)O)C(C)C)C(C)C [pepstatin A] (Isovaleryl-VV[Sta]A[Sta]-OH),relatively strong inhibitors
4,[Cd+2] [Cd^2+],inhibitory at low concentrations
5,[Zn+2] [Zn^2+],inhibitory at low concentrations
6,[Cu+2] [Cu^2+],inhibitory at low concentrations
7,CCCCCCCCCCCCOS(=O)(=O)[O-].[Na+] [SDS],inhibitory at low concentrations
8,O[C@H](CS)[C@H](O)CS (racemic) [Dithiothreitol],inhibitory at low concentrations
9,NCCCC[C@H](N)C(=O)O [lysine],inhibited
10,N=C(N)NCCC[C@H](N)C(=O)O [arginine],inhibited
11,B1,at least partially inhibit
12,B2,at least partially inhibit
